Paper PMC7004151, “Synthesis and Structure‐Activity Relationships of N‐(4‐Benzamidino)‐Oxazolidinones: Potent and Selective Inhibitors of Kallikrein‐Related Peptidase 6” (Chemmedchem, 2019)

Biological target: T1, Human Factor Xa (Homo sapiens, UniProt P00742)
T1 construct: Human Factor Xa was purchased from Enzo Life Sciences; purchased Enzo Life Sciences
Assay: Factor Xa enzyme inhibition assay
Format: biochemical
Conditions: read-out: Factor Xa pIC50 (converted)
Experimental: Human thrombin was purchased from Biopur. Human trypsin was purchased from Polymun Scientific. Human Factor Xa was purchased from Enzo Life Sciences. Thrombin (20 nM), trypsin (0.000015 %) or Factor Xa (10 nM) were assayed in a similar manner to the KLKs but were incubated with compound for 20 min at room temperature in assay buffer (50 mM Tris HCl, pH 7.6, 100 mM NaCl, 1 mg/ml CHAPS, 0.05 % bovine serum albumin (BSA), 1 mM dithiothreitol (DTT)) before the addition of 5 μM, 2.5 μM or 1.5 μM Rhodamine 110 substrate (Cambridge bioscience ltd) respectively. Fluorescence intensity was then read at ex/em 485/535 following incubation for 1 h at room temperature (thrombin and factor Xa) or 20 min (trypsin).

T1 sequence (P00742 235-488 limits assumed): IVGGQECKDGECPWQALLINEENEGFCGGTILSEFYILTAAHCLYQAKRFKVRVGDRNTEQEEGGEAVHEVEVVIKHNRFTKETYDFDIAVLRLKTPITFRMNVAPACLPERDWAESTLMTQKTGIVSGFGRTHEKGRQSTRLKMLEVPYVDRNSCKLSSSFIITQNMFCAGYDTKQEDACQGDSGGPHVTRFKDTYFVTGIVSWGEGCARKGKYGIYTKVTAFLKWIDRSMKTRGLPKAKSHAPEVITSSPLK
T1 sequence (P00742 41-179 partner limits assumed): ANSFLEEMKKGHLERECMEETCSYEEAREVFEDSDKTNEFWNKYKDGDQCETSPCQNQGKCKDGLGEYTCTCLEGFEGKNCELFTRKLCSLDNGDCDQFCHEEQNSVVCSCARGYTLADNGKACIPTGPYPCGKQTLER

In the case of `CC[C@H](NC(=O)[C@H]1CN(c2ccc(C(=N)N)cc2)C(=O)O1)c1cccc2ccccc12` [Compound 32, (5R)‐3‐(4‐carbamimidoylphenyl)‐N‐((S)‐1‐(naphthalen‐1‐yl)propyl)‐2‐oxooxazolidine‐5‐carboxamide], the IC50 is reported as > 20 µM.
